For assay [1], the system named is T1, Receptor-type tyrosine-protein kinase FLT3 (Homo sapiens), P36888 [D835Y].
T1 sequence (whole entry): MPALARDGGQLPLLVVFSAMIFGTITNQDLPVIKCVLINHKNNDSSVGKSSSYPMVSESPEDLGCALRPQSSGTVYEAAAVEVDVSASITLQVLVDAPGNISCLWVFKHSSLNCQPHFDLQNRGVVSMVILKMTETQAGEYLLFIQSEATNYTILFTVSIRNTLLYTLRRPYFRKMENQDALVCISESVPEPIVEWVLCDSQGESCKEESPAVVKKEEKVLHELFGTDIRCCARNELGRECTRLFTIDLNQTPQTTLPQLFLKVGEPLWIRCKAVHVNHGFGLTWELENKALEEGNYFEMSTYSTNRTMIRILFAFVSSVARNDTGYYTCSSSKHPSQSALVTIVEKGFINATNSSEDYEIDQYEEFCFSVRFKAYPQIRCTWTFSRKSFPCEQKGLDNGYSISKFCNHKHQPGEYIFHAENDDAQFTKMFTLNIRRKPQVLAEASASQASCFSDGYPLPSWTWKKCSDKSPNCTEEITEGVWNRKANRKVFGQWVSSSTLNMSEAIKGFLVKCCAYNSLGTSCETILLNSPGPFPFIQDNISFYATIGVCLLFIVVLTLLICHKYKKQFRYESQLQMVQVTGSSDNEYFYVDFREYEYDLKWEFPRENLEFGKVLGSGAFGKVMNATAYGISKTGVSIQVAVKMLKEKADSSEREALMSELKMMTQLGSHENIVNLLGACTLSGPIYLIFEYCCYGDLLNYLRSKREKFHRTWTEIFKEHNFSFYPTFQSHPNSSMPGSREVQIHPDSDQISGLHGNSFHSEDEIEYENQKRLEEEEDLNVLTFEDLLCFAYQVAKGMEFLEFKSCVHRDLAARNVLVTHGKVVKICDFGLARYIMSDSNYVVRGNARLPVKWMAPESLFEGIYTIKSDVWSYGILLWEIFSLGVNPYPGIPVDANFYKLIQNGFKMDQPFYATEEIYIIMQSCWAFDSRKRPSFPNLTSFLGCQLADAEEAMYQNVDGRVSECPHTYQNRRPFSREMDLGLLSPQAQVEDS
The assay is described as follows: (§1) Selectivity interaction (KinomeScan (DiscoverX)) EUB0000695a FLT3. To be noted: at 100 nM.

Assay [2] deals with T2, Receptor-type tyrosine-protein kinase FLT3 (Homo sapiens), P36888 [R834Q].
T2 sequence (whole entry): T1 sequence (whole entry) with R834Q, Y835D
The assay is described as §1. To be noted: at 100 nM.

A short description of assay [3]: Selectivity interaction (KinomeScan (DiscoverX)) EUB0000666a PKNB. To be noted: at 10 µM.
For assay [4], the target named is Calcium/calmodulin-dependent protein kinase type II subunit beta (Homo sapiens) (UniProt Q13554). The assay is described as follows: Selectivity interaction (ActivX KiNativ screen (kinase selectivity in THP-1 cell lysates)) EUB0000639a CAMK2B. It counts as subcellular. The settings on record: lysate, at 5 µM.
Sequence of Calcium/calmodulin-dependent protein kinase type II subunit beta (Homo sapiens) (Q13554 whole entry): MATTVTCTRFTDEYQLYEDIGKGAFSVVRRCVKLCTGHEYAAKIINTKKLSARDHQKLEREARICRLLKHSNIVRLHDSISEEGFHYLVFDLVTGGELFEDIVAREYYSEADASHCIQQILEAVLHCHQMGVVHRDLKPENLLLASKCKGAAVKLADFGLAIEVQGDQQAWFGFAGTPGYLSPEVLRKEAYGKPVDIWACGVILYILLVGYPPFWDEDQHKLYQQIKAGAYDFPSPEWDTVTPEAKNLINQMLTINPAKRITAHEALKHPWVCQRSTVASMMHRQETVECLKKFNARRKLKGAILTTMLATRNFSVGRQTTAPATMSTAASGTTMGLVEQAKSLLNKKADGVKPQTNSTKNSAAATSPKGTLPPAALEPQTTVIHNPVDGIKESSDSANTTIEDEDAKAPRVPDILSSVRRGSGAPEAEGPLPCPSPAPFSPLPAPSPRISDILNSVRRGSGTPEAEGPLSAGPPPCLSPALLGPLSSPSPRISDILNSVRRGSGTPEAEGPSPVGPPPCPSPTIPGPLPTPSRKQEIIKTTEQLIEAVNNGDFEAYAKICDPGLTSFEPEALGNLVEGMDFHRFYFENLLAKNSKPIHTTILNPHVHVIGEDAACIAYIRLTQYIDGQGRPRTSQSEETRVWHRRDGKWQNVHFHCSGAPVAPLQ
Assay [5] addresses Cyclin-dependent kinase 9 (Homo sapiens, UniProt P50750). In words: Selectivity interaction (Kinase panel (Invitrogen)) EUB0000639a CDK9. The settings on record: at 200 nM.
The next assay has as its target D(1A) dopamine receptor (Homo sapiens, UniProt P21728). In words: Selectivity interaction (GPCR panel (PDSP screen)) EUB0000311b DRD1. The settings on record: at 10 µM.
For assay [6], the target named is Homeodomain-interacting protein kinase 2 (Homo sapiens, UniProt Q9H2X6). In words: Selectivity interaction (Enzymatic assay (Eurofins)) EUB0001049a HIPK2.
Sequence of Homeodomain-interacting protein kinase 2 (Q9H2X6 whole entry): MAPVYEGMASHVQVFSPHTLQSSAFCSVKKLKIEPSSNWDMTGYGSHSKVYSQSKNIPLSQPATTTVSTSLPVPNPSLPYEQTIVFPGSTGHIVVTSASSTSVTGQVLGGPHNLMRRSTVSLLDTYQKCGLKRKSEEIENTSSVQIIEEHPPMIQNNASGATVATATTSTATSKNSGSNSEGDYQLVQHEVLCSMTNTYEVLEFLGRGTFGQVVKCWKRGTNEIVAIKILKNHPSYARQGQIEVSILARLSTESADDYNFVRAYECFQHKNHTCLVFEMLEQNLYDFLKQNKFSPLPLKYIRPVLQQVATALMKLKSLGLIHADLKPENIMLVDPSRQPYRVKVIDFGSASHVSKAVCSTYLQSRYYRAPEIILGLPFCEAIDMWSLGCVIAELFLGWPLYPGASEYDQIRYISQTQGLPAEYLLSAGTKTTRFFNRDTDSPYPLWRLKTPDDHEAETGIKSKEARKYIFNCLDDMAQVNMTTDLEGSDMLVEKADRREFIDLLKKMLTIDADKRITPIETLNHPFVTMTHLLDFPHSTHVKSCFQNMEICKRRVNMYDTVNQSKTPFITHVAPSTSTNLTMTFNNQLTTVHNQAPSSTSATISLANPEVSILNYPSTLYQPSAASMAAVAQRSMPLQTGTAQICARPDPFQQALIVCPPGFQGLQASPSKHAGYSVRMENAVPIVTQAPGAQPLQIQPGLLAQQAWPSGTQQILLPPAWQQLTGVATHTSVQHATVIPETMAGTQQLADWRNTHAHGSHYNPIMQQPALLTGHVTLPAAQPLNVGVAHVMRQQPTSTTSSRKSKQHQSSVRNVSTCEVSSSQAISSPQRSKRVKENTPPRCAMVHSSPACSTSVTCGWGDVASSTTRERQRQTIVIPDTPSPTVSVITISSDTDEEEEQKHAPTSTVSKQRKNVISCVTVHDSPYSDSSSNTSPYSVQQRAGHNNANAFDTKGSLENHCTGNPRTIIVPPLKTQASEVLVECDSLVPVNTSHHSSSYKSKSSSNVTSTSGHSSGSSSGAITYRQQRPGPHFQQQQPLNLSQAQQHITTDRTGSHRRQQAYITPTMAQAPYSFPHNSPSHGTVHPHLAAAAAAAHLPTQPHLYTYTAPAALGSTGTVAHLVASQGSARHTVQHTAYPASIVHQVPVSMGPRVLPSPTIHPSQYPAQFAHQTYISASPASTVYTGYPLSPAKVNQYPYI

Each structure is given as a SMILES string. Changes are numbered by the printed parent chain.

Sequence of Cyclin-dependent kinase 9 (P50750 whole entry): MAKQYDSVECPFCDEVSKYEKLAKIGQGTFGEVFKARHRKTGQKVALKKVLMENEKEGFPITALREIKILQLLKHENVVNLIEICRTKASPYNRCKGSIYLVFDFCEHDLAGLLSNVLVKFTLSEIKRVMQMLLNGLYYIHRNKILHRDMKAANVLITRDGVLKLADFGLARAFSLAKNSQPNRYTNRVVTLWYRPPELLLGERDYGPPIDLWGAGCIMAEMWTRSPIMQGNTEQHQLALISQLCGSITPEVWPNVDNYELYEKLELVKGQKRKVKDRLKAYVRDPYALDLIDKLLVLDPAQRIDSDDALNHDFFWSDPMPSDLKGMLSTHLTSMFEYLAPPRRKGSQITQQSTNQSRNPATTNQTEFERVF
Sequence of D(1A) dopamine receptor (P21728 whole entry): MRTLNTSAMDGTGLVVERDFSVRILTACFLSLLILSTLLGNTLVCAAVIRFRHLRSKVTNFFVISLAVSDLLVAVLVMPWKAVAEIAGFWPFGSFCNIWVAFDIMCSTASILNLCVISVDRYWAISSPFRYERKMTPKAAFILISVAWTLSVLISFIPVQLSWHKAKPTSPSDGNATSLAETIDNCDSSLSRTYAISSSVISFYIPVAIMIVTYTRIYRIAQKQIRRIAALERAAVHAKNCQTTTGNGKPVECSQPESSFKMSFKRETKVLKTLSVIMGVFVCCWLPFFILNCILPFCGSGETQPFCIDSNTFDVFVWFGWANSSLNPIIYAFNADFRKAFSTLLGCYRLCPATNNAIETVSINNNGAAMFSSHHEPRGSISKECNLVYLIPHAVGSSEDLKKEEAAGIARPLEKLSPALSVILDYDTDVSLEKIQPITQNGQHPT

As for `Cc1cc(F)c(C(=O)Nc2cccc(-c3nncn3C(C)C)n2)cc1-n1cnc(C2CC2)c1`, the % of control in assay [1] and in assay [2] was 100% throughout.
Molecule `O=C(NOC[C@H](O)CO)c1ccc(F)c(F)c1Nc1ccc(I)cc1F` displayed a % of control in assay [3] of 91%.
Turning to `CC[C@@H]1[C@H](F)C(=O)N[C@@H]1COc1nccc2cc(C(N)=O)c(OC)cc12` [ZIMLOVISERTIB], the figures for the % of inhibition in assay [4] and in assay [5] were 19.6% and 4.37%, respectively.
`CCc1ccccc1C(=O)Nc1n[nH]c2c(C)c(F)c(C3C(C#N)=C(C)N(C)C(C)=C3C#N)cc12` [BAY-3827] displayed a % of inhibition at D(1A) dopamine receptor of 67.4%.
For `COc1cc(Nc2nc(C)cc(-c3cnn4nc(OC)ccc34)n2)cc(C(F)(F)F)c1`, the IC50 (in general, the midpoint of a concentration-inhibition curve) in assay [6] was over 10 µM.

The record behind these values is ChEMBL document CHEMBL5465560, “Selectivity Literature for EUbOPEN Chemogenomic Library” (2024).
